Biological target: OX2R (Homo sapiens (Human), UniProt O43614)
Assay: radioligand binding assay, OX2 receptor
Conditions: membranes prepared from CHO cells expressing the OX2 receptor
Experimental: The utility of the compounds in accordance with the present invention as orexin receptor OX1R and/or OX2R antagonists may be readily determined without undue experimentation by methodology well known in the art, including the “FLIPR Ca^2+ Flux Assay” (Okumura et al., Biochem. Biophys. Res. Comm. 280:976-981, 2001). In a typical experiment the OX1 and OX2 receptor antagonistic activity of the compounds of the present invention was determined in accordance with the following experimental method. For intracellular calcium measurements, Chinese hamster ovary (CHO) cells expressing the rat orexin-1 receptor or the human orexin-2 receptor, are grown in Iscove's modified DMEM containing 2 mM L-glutamine, […], 1% hypoxanthine-thymidine supplement, 100 U/ml penicillin, 100 ug/ml streptomycin and 10% heat-inactivated fetal calf serum (FCS). The cells are seeded at 20,000 cells/well into Becton-Dickinson black 384-well clear bottom sterile plates coated with poly-D-lysine. All reagents were from GIBCO-Invitrogen Corp. The seeded plates are incubated overnight at 37° C. and 5% CO2. Ala-6,12 human orexin-A as the agonist is prepared as a 1 mM stock solution in 1% bovine serum albumin (BSA) and diluted in assay buffer (HBSS containing 20 mM HEPES, 0.1% BSA and 2.5 mM probenecid, pH7.4) for use in the assay at a final concentration of […]. Test compounds are prepared as 10 mM stock solution in DMSO, then diluted in 384-well plates, first in DMSO, then assay buffer. On the day of the assay, cells are washed 3 times with 100 ul assay buffer and then incubated for 60 min (37° C., 5% CO2) in 60 ul assay buffer containing 1 uM Fluo-4AM ester, 0.02% pluronic acid, and 1% BSA. The dye loading solution is then aspirated and cells are washed 3 times with 100 ul assay buffer. 30 ul of that same buffer is left in each well. Within the Fluorescent Imaging Plate Reader (FLIPR, Molecular Devices), test compounds are added to the plate in a volume of 25 ul, incubated for 5 min and finally 25 ul of agonist is added. Fluorescence is measured for each well at 1 second intervals for 5 minutes and the height of each fluorescence peak is compared to the height of the fluorescence peak induced by 70 pM Ala-6,12 orexin-A with buffer in place of antagonist. […] Alternatively, compound potency can be assessed by a radioligand binding assay (described in Bergman et. al. Bioorg. Med. Chem. Lett. 2008, 18, 1425-1430) in which the inhibition constant (Ki) is determined in membranes prepared from CHO cells expressing either the OX1 or OX2 receptor. The intrinsic orexin receptor antagonist activity of a compound which may be used in the present invention may be determined by these assays.

OX2R, sequence (O43614 whole entry): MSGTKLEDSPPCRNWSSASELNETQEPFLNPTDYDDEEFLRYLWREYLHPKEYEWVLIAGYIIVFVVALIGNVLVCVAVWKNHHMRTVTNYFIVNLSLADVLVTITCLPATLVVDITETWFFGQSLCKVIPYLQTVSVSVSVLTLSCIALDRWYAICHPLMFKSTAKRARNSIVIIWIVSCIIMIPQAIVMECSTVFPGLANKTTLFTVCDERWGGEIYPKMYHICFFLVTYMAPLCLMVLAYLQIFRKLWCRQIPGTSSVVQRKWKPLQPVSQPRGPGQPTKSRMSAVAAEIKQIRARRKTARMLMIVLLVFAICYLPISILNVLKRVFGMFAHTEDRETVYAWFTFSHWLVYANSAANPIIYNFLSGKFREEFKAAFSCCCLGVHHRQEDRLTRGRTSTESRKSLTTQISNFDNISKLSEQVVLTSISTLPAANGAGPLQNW

Row | Ki [nM] | SMILES
1 | 4.5 | COc1ncc(CNC(=O)c2cc(-c3cncc(C)c3)ncc2-c2cccc(F)c2)nc1OC [1-13]
2 | 0.91 | COc1ccc(CNC(=O)c2cc(-c3cncc(C)c3)ncc2-c2cccc(F)c2)nc1OC [1-16]
3 | 0.95 | COc1ccc(CNC(=O)c2cc(-c3cncc(C)c3)ncc2-c2nccs2)nc1OC [7-5, N-[(5,6-Dimethoxypyridin-2-yl)methyl]-5′-methyl-5-(1,3-thiazol-2-yl)-2,3′-bipyridine-4-carboxamide]
4 | 0.97 | COc1nc(CNC(=O)c2cc(-c3cncc(C)c3)ncc2-c2nccs2)ccc1C1CC1 [7-7, N-[(5-cyclopropyl-6-methoxypyridin-2-yl)methyl]-5′-methyl-5-(1,3-thiazol-2-yl)-2,3′-bipyridine-4-carboxamide]
